Test results: patent publication US20130345159A1, “PURIFIED CARDIOGENIN ISOMER AND RELATED METHODS” (HUYA BIOSCIENCE INTERNATIONAL LLC, priority 2010, published 2013)
Entries after “also recorded” stand apart in the source; their conditions may differ.

What was measured:
[1] = test system: mesenchymal stem cells (MSCs); assay: fluorescent immunocytochemistry for cardiogenic differentiation markers Mef2a and MHC beta in treated MSCs; type: cell-based, rat; settings: 10 μg/ml; for treated cells with Mef2a-positive staining (D3): treated for 3 days; for treated cells with MHC beta-positive signals (D7): treated for 7 days
Procedure: FIG. 16 depicts immunofluorescence staining for expression of cardiogenic differentiation markers, Mef2a (fluorescence in D3) and beta, MHC beta (fluorescence in D7). D3 and D7, the cultured MSCs samples were treated with the compounds, as labeled, for 3 and 7 days, respectively. Neg is the negative control of MSCs culture, with no use of the first antibody specific to Mef2a or MHC beta, showing negative signals of Mef2a (D3) and MHC (D7) staining Ctrl represents the cultured MSCs treated with the equivalent volume of 10% DMSO, with almost no positive Mef2a (D3) and MHC beta (D7) signals observed.
FIG. 17 depicts immunofluorescence staining for expressions of early cardiogenic differentiation marker, Mef2a (fluorescence in D3) and cardiac specific myosin heavy chain beta, MHC (fluorescence in D7). D3 and D7, the cultured MSCs samples were treated with the compounds, as labeled, for 3 and 7 days, respectively.
The method for the fluorescent-immunostaining is summarize briefly: The cultured cells were fixed with 4% paraformaldehyde in PBS for 15 minutes and permeabilized with 0.5% Triton X-100 for 15 minutes. Dilution of antibodies was as follows: rabbit polyclonal antibodies specific to rat MEF2a (1:500) and mouse monoclonal antibodies specific to MHC (1:500) (both antibodies from Abcam®). Secondary antibodies were goat anti-mouse and rabbit anti-IgG antibodies conjugated with fluorophore (FITC 495/528 and Cy5 650/667, products of Abcam®), respectively. The nuclei were stained with DAPI. Examined by fluorescent microscopy were the cardiogenic differentiation-associated morphological transition and specific marker protein expression of the cultured MSCs.

[2] = test system: mesenchymal stem cells (MSCs); assay: cardiogenic morphological transition of cultured MSCs (phase contrast microscope); type: cell-based, rat; settings: for MSCs undergoing narrowing and becoming more refractive (cardiogenic morphological transition), D3 / MSCs undergoing narrowing and becoming more refractive (cardiogenic morphological transition), D7: 10 μg/ml; for MSCs undergoing narrowing and becoming more refractive (cardiogenic morphological transition), D3: treated for 3 days; for MSCs undergoing narrowing and becoming more refractive (cardiogenic morphological transition), D7: treated for 7 days; for activity in inducing cardiogenic differentiation of MSCs (in words): summary statements
Procedure: FIG. 14 presents photomicrographs that illustrate the activity of Car, HUYA-1 and HUYA-2, each 10 μg/ml, in inducing the cardiogenic morphological transition of mesenchymal stem cells (MSCs). D0, cultures of MSCs were set up before any treatment. The morphology of the MSCs was characterized by flat, irregular, low refracted and well-spread shapes (circles). D3, sample of the cultured MSCs were treated for 3 days with compounds as respectively labeled. […] D7, the cultured MSCs samples were treated for 7 days with compounds as respectively labeled. More MSCs (˜48%) in Car- and HUYA-1-treated cultures underwent narrowing and became more refractive (circles).
FIG. 15 provides a comparison, via photomicrographs, of HUYA-3 (10 μg/ml) with HUYA-4 (10 μg/ml) in inducing cardiogenic morphological transition of MSCs. Ctrl denotes the MSCs treated with vehicle (10% DMSO in equivalent volume). D0, the MSCs cultures were set before any treatment. The morphology of the MSCs was characterized by flat, irregular, low refracted and well-spread shapes (circles). D3, sample of the cultured MSCs were treated for 3 days with compounds as respectively labeled. […] D7, the cultured MSCs samples were treated for 7 days with compounds as respectively labeled. A similar amount of the MSCs (˜22%) in HUYA-4-treated cultures became narrowing and more refractive (ovals).
Testing was performed according to the procedures described in the following: The tibias/femur bones of rats were removed and the BM was flushed out of the bones with alpha IMDM culture medium. The BM was mixed well and centrifuged at 1,500 rpm for 5 minutes. The cell pellet was suspended with 3 ml culture medium, and the forming cell suspension was carefully put on 4 ml Ficoll solution, to minimize disturbance, and then was centrifuged at […] for 30 minutes. The second layer was transferred into a tube and washed twice with PBS to remove Ficoll (1,200 rpm for 5 minutes). The resulting cell pellet was resuspended in IMDM culture medium containing 10% heat-inactivated FBS (GIBCO) and 1% penicillin/streptomycin antibiotic mixture, and this was used for the tests. Non-adherent cells were discarded after 24 hours culturing. The adherent cells were cultured by changing medium every 3 days. The cells became nearly confluent after 14 days culture. To activate the cardiogenic morphology transition, the MSCs were cultured for 7 days in the presence of the HUYA-1, HUYA-2, HUYA-3, HUYA-4 or Car (10 μg/ml IMDM culture medium), respectively. The treating period-dependent morphological transition was evaluated, on a time-lapse basis, with a phase contrast microscope.

GFP-MSCs = assay: differentiation of GFP-MSCs into beating cardiac myocytes in co-culture with rat cardiac myocytes; type: cell-based, mice; settings: 10 μg/ml
Text: FIG. 18 depicts HUYA-1-induced differentiation of GFP-MSCs into beating cardiac myocytes in co-culture system. This screenshot was taken from a video showing beating GFP-positive myocytes (enclosed areas) differentiated from the GFP-MSCs, which were co-cultured with rat cardiac myocytes and fibroblasts and then treated with HUYA-1. Since the culture contained non-GFP myocytes and fibroblasts and GFP-MSCs, any beating cells with GFP-positive signals that were identified must have differentiated from GFP-MSCs.
Bone marrow GFP-MSCs were isolated from the tibias/femur bones of GFP-transgenic mice. The GFP-MSCs were co-cultured with the cardiac myocytes isolated from neonatal SD rats in the presence of HUYA-1 (10 μg/ml IMDM culture medium) to mimic the cardiac micro-environment. The cultures were investigated daily, under a fluorescent microscope, to identify beating GFP-positive cells and to gauge the morphological transition of the cultured GFP-MSCs.

[3] = solubility in cell culture medium; type: physicochemical; settings: compared with HUYA-1
Text: The DMSO concentration was increased from 5% to 10% to increase the solubility of HUYA-4.

[4] = stress tests of the separated cardiogenin isomers; settings: storage in MTBE/IPA=50:50 or as solids at 40° C. for 24 hours
Procedure: Stress tests were performed to determine whether the two cardiogenin isomers separated from each other are stable and not converting into each other. In particular, the two cardiogenin isomers were stressed by storage in MTBE/IPA=50:50 or as solids at 40° C. (the major isomer in solution and solid; the minor isomer only in solution) for 24 hours.

[5] = listed as cardiogenin major isomer

Q: For `C[C@@H]1CC[C@]2(C(=O)OC3OC(CO)C(O)C(O)C3O)CC[C@]3(C)C(=CCC4[C@@]5(C)C[C@@H](O)[C@H](O)[C@@](C)(CO)C5CC[C@]43C)C2[C@]1(C)O` (stereo partly shown) [HUYA-1, cardiogenin], which “treated cells with Mef2a-positive staining (D3)” value (“treated cells … (D3)” below) [1] is on record?
A: approximately 15%

Q: What about the “treated cells with MHC beta-positive signals (D7)” value (from here on “treated cells … (D7)”) [1] of the same compound?
A: 20%

Q: And the “MSCs undergoing narrowing and becoming more refractive (cardiogenic morphological transition), D3” value [2]?
A: ~31%

Q: And the “MSCs undergoing narrowing and becoming more refractive (cardiogenic morphological transition), D7” value [2]?
A: ~48%

Q: What about the “cultured MSCs induced into cardiogenic differentiation” value ([2]; cell culture, summary of FIGS. 14 and 15) of the same compound?
A: more than 20%

Q: And the “activity in inducing cardiogenic differentiation of MSCs (in words)” value [2]?
A: most active compound

Q: And the “activity in inducing cardiogenic differentiation of MSCs (in words)” value [2, 5]?
A: substantially enhanced differentiation into cardiomyocytes; also recorded: active

Q: And the “activity in inducing cardiogenic differentiation of MSCs (in words)” value ([2]; listed as isolated cardiogenin major isomer)?
A: biologically active

Q: And the “differentiation of MSCs into beating cardiac myocytes” value (GFP-MSCs)?
A: induced cardiogenic differentiation of the GFP-MSCs to form beating cardiac myocytes; also recorded: can enhance the cardiogenic differentiation of MSCs into beating cardiac myocytes

Q: What about the “differentiation of MSCs into beating cardiac myocytes” value (GFP-MSCs; [5]) of the same compound?
A: beating cardiomyocytes differentiate from MSCs

Q: For `C[C@@H]1CC[C@]2(C(=O)O)CC[C@]3(C)C(=CCC4[C@@]5(C)C[C@@H](O)[C@H](O)[C@@](C)(CO)C5CC[C@]43C)C2[C@]1(C)O` (stereo partly shown) [HUYA-4], which “treated cells … (D3)” value [1] is on record?
A: ~6%

Q: What about the “treated cells … (D7)” value [1] of the same compound?
A: ~8%

Q: What about the “MSCs undergoing narrowing and becoming more refractive (cardiogenic morphological transition), D3” value [2] of the same compound?
A: ~20%

Q: What about the “MSCs undergoing narrowing and becoming more refractive (cardiogenic morphological transition), D7” value [2] of the same compound?
A: ~22%

Q: And the “activity in inducing cardiogenic differentiation of MSCs (in words)” value [2]?
A: induced MSCs into cardiogenic differentiation

Q: What about the “activity in inducing cardiogenic differentiation of MSCs (in words)” value ([2]; listed as aglycone) of the same compound?
A: substantially enhanced differentiation into cardiomyocytes

Q: And the “differentiation of MSCs into beating cardiac myocytes” value (GFP-MSCs)?
A: beating cardiomyocytes differentiate from MSCs

Q: And the “solubility in cell culture medium” value [3]?
A: lower solubility

Q: With cardiogenin [HUYA-2] as the compound, how does the “treated cells … (D3)” value [1] read?
A: almost no positive signals

Q: And the “treated cells … (D7)” value [1]?
A: ~3%

Q: And the “MSCs undergoing narrowing and becoming more refractive (cardiogenic morphological transition), D3” value [2]?
A: did not show clear morphological changes

Q: What about the “MSCs undergoing narrowing and becoming more refractive (cardiogenic morphological transition), D7” value [2] of the same compound?
A: no significant morphological change

Q: And the “activity in inducing cardiogenic differentiation of MSCs (in words)” value [2]?
A: essentially inactive

Q: And the “activity in inducing cardiogenic differentiation of MSCs (in words)” value ([2]; listed as minor isomer)?
A: inactive

Q: And the stability under stress [4]?
A: The same picture was obtained
